From patent US20250346573A1, “AZAQUINOLINONE DERIVATIVE, PREPARATION METHOD THEREFOR AND USE THEREOF” (CHENGDU EASTON BIOPHARMACEUTICALS CO., LTD., priority 2022, published 2025)

Key:
[1] = test system: BRCA1-mutated MDA-MB-436 cells; assay: Proliferation inhibitory test of BRCA1-mutated MDA-MB-436 cells (CCK-8); assay type: cell-based; conditions: Homo sapiens, 120 h, 5 days, read-out: IC50 (nM), inhibitory activity against BRCA1-mutated MDA-MB-436 cells
Method: (§1) CCK-8 was used to measure the content of mitochondrial dehydrogenase in cells at different drug concentrations, and the luminescence intensity was used to reflect the cell activity. The IC50 values of different compounds on BRCA1-mutated MDA-MB-436 cells were calculated using the survival rate, and the proliferation inhibitory effect of the compounds of the present disclosure on BRCA1-mutated MDA-MB-436 cells was studied to evaluate the anti-tumor efficacy of the test compounds at the cellular level.
(§2) On Day −1, the cells were inoculated into the 96-well cell culture plate at a fixed cell density and then placed in the 5% CO2 cell incubator for culture overnight at 37° C.
(§3) On Day 0, the compound to be tested was prepared into a 10 mM stock solution and diluted into 9 concentration points at the concentration of 1,000 nM, 300 nM, 100 nM, 30 nM, 10 nM, 3 nM, 1 nM, 0.3 nM and 0.1 nM in two duplicated wells. A fixed volume of the diluted compound was added to the 96-well cell culture plate and then placed in the 5% CO2 cell incubator for culture at 37° C. for 5 days.
(§4) On Day 5, a fixed volume of CCK-8 was added to the 96-well cell culture plate and incubated in the 5% CO2 cell incubator at 37° C. for 1.5 h, and the plate was read by a chemiluminescence module of the multifunctional microplate reader.
(§5) With the logarithmic value of the concentration as an X axis and the survival percentage as a Y axis, a dose-effect curve was fitted by using a log(inhibitor) vs. response-Variable slop (Four parameters) formula of the analysis software Graphpad Prism 9, thereby obtaining the IC50 value of the anti-proliferation inhibitory activity of each compound against BRCA1-mutated MDA-MB-436 cells.

[2] = test system: BRCA1-mutated HCC1395 cells; assay: Proliferation inhibitory test of BRCA1-mutated HCC1395 cells (CCK-8); assay type: cell-based; conditions: Homo sapiens, 120 h, 5 days, read-out: IC50 (nM), inhibitory activity against BRCA1-mutated HCC1395 cells
Method: as §1, with “HCC1395” for “MDA-MB-436”
as §2, §3, §4
as §5, with “HCC1395” for “MDA-MB-436”

[3] = Study on pharmacokinetics of rats (oral gavage, plasma LC-MS/MS); assay type: in vivo; conditions: female SD rats; for AUC(0-t) / Cmax / half-life: rat
Method: With SD rats as test animals, the plasma concentration in the plasma of rats at different time points after oral administration of the compounds of the present application was determined by an LC-MS/MS method. Pharmacokinetic parameters of the compounds of the present application in rats were obtained to study pharmacokinetic characteristics.
SD rats, female, body weight 180-220 g, 3 rats per group. After being purchased, the animals were fed in an animal house for an adaptation period of at least 3 days and then used for testing after passing quarantine.
3.1. Grouping: The SD rats were randomly grouped according to Table 4, which had no statistical difference in the body weight between groups after grouping.
3.2. Vehicle: 10% DMSO and 90% (20% SBE-β-CD in saline).
According to Table 4, each compound was prepared into a clear solution with the vehicle, respectively, and each group was administered by gavage with the corresponding test drug. Before administration, and at 15 min, 30 min, 1 h, 2 h, 4 h, 6 h, 8 h and 24 h after the administration, a fixed volume of blood was collected through sinuses jugularis, placed in an EDTA-K2 anticoagulant tube, and centrifuged at 4,000 rpm for 10 min to separate the plasma in a centrifuge tube. The plasma was frozen in a refrigerator at −80° C.
The plasma stored at −80° C. at each time point was taken out, and a fixed volume of acetonitrile was added thereto. After being vortexed at 1,500 rpm for 2 min, it was centrifuged for 15 min (3,500 r/min). A fixed volume of solution supernatant was taken for LC-MS/MS analysis.
The pharmacokinetic behaviors of the test compounds were fitted with a non-compartmental model, and the main pharmacokinetic parameters were calculated using DAS3.31 software.

Compound | IC50 [1] [nM] | IC50 [2] [nM] | also measured
CCc1nc2c(F)cc(CN3CCN(c4ccc(C(=O)NCCO)nc4C)CC3)cc2[nH]c1=O [Compound 31, 5-(4-((2-ethyl-8-fluoro-3-oxo-3,4-dihydroquinoxalin-6-yl)methyl)piperazin-1-yl)-N-(2-hydroxyethyl)-6-methylpicolinamide] | 8.77 | – | –
Cc1nc2c(C)cc(CN3CCN(c4ccc(C#N)c(F)c4)CC3)cc2[nH]c1=O [Compound 19, 4-(4-((2,8-dimethyl-3-oxo-3,4-dihydroquinoxalin-6-yl)methyl)piperazin-1-yl)-2-fluorobenzonitrile] | 8.31 | – | –
Cc1nc(C(=O)NCC(F)F)ccc1N1CCN(Cc2cc(F)c3nc(C)c(=O)[nH]c3c2)CC1 [Compound 28, N-(2,2-difluoroethyl)-5-(4-((8-fluoro-2-methyl-3-oxo-3,4-dihydroquinoxalin-6-yl)methyl)piperazin-1-yl)-6-methylpicolinamide] | 4.53 | 2.03 | –
CCc1nc2c(F)cc(CN3CCN(c4ccc(C(=O)NC5COC5)nc4C)CC3)cc2[nH]c1=O [Compound 42, 5-(4-((2-ethyl-8-fluoro-3-oxo-3,4-dihydroquinoxalin-6-yl)methyl)piperazin-1-yl)-6-methyl-N-(oxetan-3-yl)picolinamide] | 4.02 | – | –
Cc1nc(C(=O)NCCF)ccc1N1CCN(Cc2cc(F)c3nc(C)c(=O)[nH]c3c2)CC1 [Compound 29, 5-(4-((8-fluoro-2-methyl-3-oxo-3,4-dihydroquinoxalin-6-yl)methyl)piperazin-1-yl)-N-(2-fluoroethyl)-6-methylpicolinamide] | 9.83 | – | –
CCc1nc2c(F)cc(CN3CCN(c4ccc(C(=O)NCCF)nc4C)CC3)cc2[nH]c1=O [Compound 30, 5-(4-((2-ethyl-8-fluoro-3-oxo-3,4-dihydroquinoxalin-6-yl)methyl)piperazin-1-yl)-N-(2-fluoroethyl)-6-methylpicolinamide] | 5.94 | – | –
CNC(=O)c1ccc(N2CCN(Cc3cc(C)c4nc(C)c(=O)[nH]c4c3)CC2)c(C)n1 [Compound 10, 5-(4-((2,8-dimethyl-3-oxo-3,4-dihydroquinoxalin-6-yl)methyl)piperazin-1-yl)-N,6-dimethylpicolinamide] | 3.63 | – | –
CCc1nc2c(F)cc(CN3CCN(c4ccc(C(=O)NCC5COC5)nc4C)CC3)cc2[nH]c1=O [Compound 33, 5-(4-((2-ethyl-8-fluoro-3-oxo-3,4-dihydroquinoxalin-6-yl)methyl)piperazin-1-yl)-6-methyl-N-(oxetan-3-ylmethyl)picolinamide] | 6.91 | – | –
CCc1nc2c(F)cc(CN3CCN(c4ccc(C(=O)NC)nc4C)CC3)cc2[nH]c1=O [Compound 32, 5-(4-((2-ethyl-8-fluoro-3-oxo-3,4-dihydroquinoxalin-6-yl)methyl)piperazin-1-yl)-N,6-dimethylpicolinamide] | 5.24 | 1.82 | Cl_F_obs ([3]; po. 3 mg/kg): 0.05 L/h/kg; AUC(0-t) ([3]; po. 3 mg/kg): 50600 ng·h/mL; Cmax ([3]; po. 3 mg/kg): 7180 ng/mL; half-life ([3]; po. 3 mg/kg): 443 min
Cc1nc(C(=O)N[C@@H]2CCOC2)ccc1N1CCN(Cc2cc(F)c3nc(C)c(=O)[nH]c3c2)CC1 [Compound 46, (R)-5-(4-((8-fluoro-2-methyl-3-oxo-3,4-dihydroquinoxalin-6-yl)methyl)piperazin-1-yl)-6-methyl-N-(tetrahydrofuran-3-yl)picolinamide] | 8.38 | – | –
CCc1nc2c(F)cc(CN3CCN(c4ccc(C(=O)NCCOC)nc4C)CC3)cc2[nH]c1=O [Compound 34, 5-(4-((2-ethyl-8-fluoro-3-oxo-3,4-dihydroquinoxalin-6-yl)methyl)piperazin-1-yl)-N-(2-methoxyethyl)-6-methylpicolinamide] | 5.87 | – | Cl_F_obs ([3]; po. 3 mg/kg): 0.18 L/h/kg; AUC(0-t) ([3]; po. 3 mg/kg): 17000 ng·h/mL; Cmax ([3]; po. 3 mg/kg): 3230 ng/mL; half-life ([3]; po. 3 mg/kg): 312 min
CNC(=O)c1ccc(N2CCN(Cc3cc4[nH]c(=O)c(C)nc4cc3OC)CC2)c(Cl)n1 [Compound 37, 6-chloro-5-(4-((7-methoxy-2-methyl-3-oxo-3,4-dihydroquinoxalin-6-yl)methyl)piperazin-1-yl)-N-methylpicolinamide] | 4.88 | 0.95 | –
CNC(=O)c1ccc(N2CCN(Cc3ccc4nc(C)c(=O)[nH]c4c3F)CC2)c(F)n1 [AZD9574, reference compound] | 21.8 | 9.93 | Cl_F_obs ([3]; po. 3 mg/kg): 0.37 L/h/kg; AUC(0-t) ([3]; po. 3 mg/kg): 6460 ng·h/mL; Cmax ([3]; po. 3 mg/kg): 702 ng/mL; half-life ([3]; po. 3 mg/kg): 364 min
CNC(=O)c1ccc(N2CCN(Cc3cc(Cl)c4nc(C)c(=O)[nH]c4c3)CC2)c(C)n1 [Compound 51, 5-(4-((8-chloro-2-methyl-3-oxo-3,4-dihydroquinoxalin-6-yl)methyl)piperazin-1-yl)-N,6-dimethylpicolinamide] | 1.05 | 1.31 | –
Cc1nc(C(=O)NCCF)ccc1N1CCN(Cc2cc3[nH]c(=O)c(C)nc3c(F)c2F)CC1 [Compound 54, 5-(4-((7,8-difluoro-2-methyl-3-oxo-3,4-dihydroquinoxalin-6-yl)methyl)piperazin-1-yl)-N-(2-fluoroethyl)-6-methylpicolinamide] | 4.97 | – | –
CCc1cc2ncc(CN3CCN(c4ccc(C(=O)NC)nc4)CC3)cc2[nH]c1=O [AZD5305, reference compound] | 0.67 | 1.76 | –
CNC(=O)c1ccc(N2CCN(Cc3cc(F)c4nc(C)c(=O)[nH]c4c3)CC2)c(Cl)n1 [Compound 7, 6-chloro-5-(4-((8-fluoro-2-methyl-3-oxo-3,4-dihydroquinoxalin-6-yl)methyl)piperazin-1-yl)-N-methylpicolinamide] | 2.31 | – | –
CNC(=O)c1ccc(N2CCN(Cc3cc4[nH]c(=O)c(C)nc4c(F)c3F)CC2)c(C)n1 [Compound 9, 5-(4-((7,8-difluoro-2-methyl-3-oxo-3,4-dihydroquinoxalin-6-yl)methyl)piperazin-1-yl)-N,6-dimethylpicolinamide] | 5.84 | 2.29 | Cl_F_obs ([3]; po. 10 mg/kg): 0.03 L/h/kg; AUC(0-t) ([3]; po. 10 mg/kg): 340000 ng·h/mL; Cmax ([3]; po. 10 mg/kg): 31900 ng/mL; half-life ([3]; po. 10 mg/kg): 464 min
CNC(=O)c1ccc(N2CCN(Cc3cc(F)c4nc(C)c(=O)[nH]c4c3)CC2)c(C)n1 [Compound 6, 5-(4-((8-fluoro-2-methyl-3-oxo-3,4-dihydroquinoxalin-6-yl)methyl)piperazin-1-yl)-N,6-dimethylpicolinamide] | 2.06 | 2.45 | Cl_F_obs ([3]; po. 10 mg/kg): 0.13 L/h/kg; AUC(0-t) ([3]; po. 10 mg/kg): 72600 ng·h/mL; Cmax ([3]; po. 10 mg/kg): 11300 ng/mL; half-life ([3]; po. 10 mg/kg): 364 min
CNC(=O)c1ccc(N2CCN(Cc3cc4[nH]c(=O)c(C)nc4c(F)c3F)CC2)cn1 [Compound 8, 5-(4-((7,8-difluoro-2-methyl-3-oxo-3,4-dihydroquinoxalin-6-yl)methyl)piperazin-1-yl)-N-methylpicolinamide] | 11.1 | – | –
COCCNC(=O)c1ccc(N2CCN(Cc3cc(C)c4nc(C)c(=O)[nH]c4c3)CC2)c(C)n1 [Compound 22, 5-(4-((2,8-dimethyl-3-oxo-3,4-dihydroquinoxalin-6-yl)methyl)piperazin-1-yl)-N-(2-methoxyethyl)-6-methylpicolinamide] | 6.95 | – | –
CNC(=O)c1ccc(N2CCN(Cc3cc4[nH]c(=O)c(C)nc4cc3OC)CC2)c(C)n1 [Compound 41, 5-(4-((7-methoxy-2-methyl-3-oxo-3,4-dihydroquinoxalin-6-yl)methyl)piperazin-1-yl)-N,6-dimethylpicolinamide] | 6.49 | – | –
